This passage reports plaque size results from patent publication US12378208B2, “N-substituted oseltamivir derivatives with antimicrobial activity” (THE HONG KONG POLYTECHNIC UNIVERSITY, priority 2019, dated 2025).

The test system of assay [1] is oseltamivir-resistant strain 09v71923. Briefly: Plaque assay in MDCK cells. The assay is classed as cell-based, influenza A virus (H1N1 pandemic).
The subject of assay [2] is oseltamivir-resistant strain 11v17178. Briefly: Plaque assay in MDCK cells. The class given is cell-based, influenza A virus (H1N1 pandemic).
[3] abbreviates: day 3, vs DMSO vehicle, two concentrations.

Consider `CCC(CC)O[C@@H]1C=C(C(=O)O)C[C@H](NCc2noc(-c3ccco3)n2)[C@H]1NC(C)=O` [Compound S7, (3R,4R,5S)-4-acetamido-5-(((5-(furan-2-yl)-1,2,4-oxadiazol-3-yl)methyl)amino)-3-(pentan-3-yloxy)cyclohex-1-ene-1-carboxylic acid], for which the plaque size entry in assay [1] (setting [3]) and in assay [2] (setting [3]) was “No inhibition effect” in each case.

In the case of `CCC(CC)O[C@@H]1C=C(C(=O)O)C[C@H](NCc2ccc(-c3c(C)noc3C)o2)[C@H]1NC(C)=O` [Compound S22, (3R,4R,5S)-4-acetamido-5-(((5-(3,5-dimethylisoxazol-4-yl)furan-2-yl)methyl)amino)-3-(pentan-3-yloxy)cyclohex-1-ene-1-carboxylic acid], the plaque size entry in assay [1] (setting [3]) and in assay [2] (setting [3]) was “No inhibition effect” throughout.

In the case of `CCOC(=O)C1=C[C@@H](OC(CC)CC)[C@H](NC(C)=O)[C@@H](N)C1` [oseltamivir], the plaque size result in assay [1] (0.2 nM oseltamivir, day 3) is given as “larger plaque size”; in assay [1] (setting [3]), “could not reduce the plaque size”; in assay [2] (0.1 nM oseltamivir, day 3) it was “significant reduction”.
